In ChEMBL document CHEMBL1201862, “PubChem BioAssay data set” (2004):
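How tested: cells in 96-well plates exposed to compound for 48 hours at five concentrations. Abbreviation: GI50, concentration required for 50% inhibition of growth.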 The source made the active and inactive calls. Cut-off read from the data, not from the text of the source: active = GI50 up to about 1.1 µM and inactive = higher.

Tests used:
Test in all cases: inhibition of tumour cell growth, NCI panel, 48 h
OVCAR-4 = system: OVCAR-4
SF-268 = system: SF-268
COLO 205 = system: COLO 205
NCI-H23 = system: NCI-H23
SNB-19 = system: SNB-19
Malme-3M = system: Malme-3M
EKVX = system: EKVX
SW-620 = system: SW-620
DU-145 = system: DU-145
M14 = system: M14
786-0 = system: 786-0
UACC-257 = system: UACC-257
TK-10 = system: TK-10
U-251 = system: U-251
NCI-H226 = system: NCI-H226
HOP-62 = system: HOP-62
LOX IMVI = system: LOX IMVI
Hs-578T = system: Hs-578T
CAKI-1 = system: CAKI-1
MDA-N = system: MDA-N
SK-MEL-2 = system: SK-MEL-2
A498 = system: A498
SF-539 = system: SF-539
MDA-MB-231 = system: MDA-MB-231
A549 = system: A549
T47D = system: T47D
RPMI-8226 = system: RPMI-8226
CCRF-CEM = system: CCRF-CEM
IGROV-1 = system: IGROV-1
MCF7 = system: MCF7
SF-295 = system: SF-295
NCI-H522 = system: NCI-H522
OVCAR-8 = system: OVCAR-8
HCT-15 = system: HCT-15
HCT-116 = system: HCT-116
UACC-62 = system: UACC-62
SNB-75 = system: SNB-75
NCI/ADR-RES = system: NCI/ADR-RES
RXF 393 = system: RXF 393
SK-MEL-28 = system: SK-MEL-28
MDA-MB-435 = system: MDA-MB-435
OVCAR-3 = system: OVCAR-3
MOLT-4 = system: MOLT-4
ACHN = system: ACHN
HL-60 = system: HL-60
SN12C = system: SN12C
BT-549 = system: BT-549
PC-3 = system: PC-3
HT-29 = system: HT-29
OVCAR-5 = system: OVCAR-5
HCC 2998 = system: HCC 2998
K562 = system: K562
NCI-H460 = system: NCI-H460
SK-OV-3 = system: SK-OV-3
KM12 = system: KM12
UO-31 = system: UO-31
HOP-92 = system: HOP-92
SK-MEL-5 = system: SK-MEL-5

## COc1ccc(OCC(=N/NC(=O)c2ccncc2)/N=C/c2cccnc2)cc1
OVCAR-4
  GI50: 96.6 µM (inactive)
SF-268
  GI50: > 100 µM (inactive)
COLO 205
  GI50: 64.6 µM (inactive)
NCI-H23
  GI50: > 100 µM (inactive)
SNB-19
  GI50: > 100 µM (inactive)
Malme-3M
  GI50: 43.6 µM (inactive)
EKVX
  GI50: > 100 µM (inactive)
SW-620
  GI50: 53.1 µM (inactive)
DU-145
  GI50: > 100 µM (inactive)
M14
  GI50: 60.5 µM (inactive)
786-0
  GI50: > 100 µM (inactive)
UACC-257
  GI50: > 100 µM (inactive)
TK-10
  GI50: > 100 µM (inactive)
U-251
  GI50: > 100 µM (inactive)
NCI-H226
  GI50: 61.1 µM (inactive)
HOP-62
  GI50: 72.1 µM (inactive)
LOX IMVI
  GI50: 89.7 µM (inactive)
Hs-578T
  GI50: 57.9 µM (inactive)
CAKI-1
  GI50: > 100 µM (inactive)
MDA-N
  GI50: 17 µM (inactive)
SK-MEL-2
  GI50: > 100 µM (inactive)
A498
  GI50: 65.3 µM (inactive)
SF-539
  GI50: 64.3 µM (inactive)
MDA-MB-231
  GI50: > 100 µM (inactive)
A549
  GI50: 92.9 µM (inactive)
T47D
  GI50: > 100 µM (inactive)
RPMI-8226
  GI50: 67.6 µM (inactive)
CCRF-CEM
  GI50: > 100 µM (inactive)
IGROV-1
  GI50: > 100 µM (inactive)
MCF7
  GI50: 73.1 µM (inactive)
SF-295
  GI50: 84.7 µM (inactive)
NCI-H522
  GI50: 13.1 µM (inactive)
OVCAR-8
  GI50: > 100 µM (inactive)
HCT-15
  GI50: 60.7 µM
HCT-116
  GI50: > 100 µM (inactive)
UACC-62
  GI50: 43.4 µM (inactive)
SNB-75
  GI50: 24.2 µM (inactive)
NCI/ADR-RES
  GI50: > 100 µM (inactive)
RXF 393
  GI50: 35.8 µM (inactive)
SK-MEL-28
  GI50: 94.8 µM (inactive)
MDA-MB-435
  GI50: 18.2 µM (inactive)
OVCAR-3
  GI50: 65.8 µM (inactive)
MOLT-4
  GI50: 69.8 µM (inactive)
ACHN
  GI50: 72.8 µM (inactive)
HL-60
  GI50: > 100 µM (inactive)
SN12C
  GI50: > 100 µM (inactive)
BT-549
  GI50: > 100 µM (inactive)
PC-3
  GI50: > 100 µM (inactive)
HT-29
  GI50: > 100 µM (inactive)
OVCAR-5
  GI50: > 100 µM (inactive)
HCC 2998
  GI50: 83.9 µM (inactive)
K562
  GI50: 44.7 µM (inactive)
NCI-H460
  GI50: > 100 µM (inactive)
SK-OV-3
  GI50: > 100 µM (inactive)
KM12
  GI50: 50.9 µM (inactive)

## Cc1cccc(/C=N/NC(=S)N2CCCCCC2)n1
SF-268
  GI50: < 0.01 µM (active)
COLO 205
  GI50: < 0.0269 µM (active)
NCI-H23
  GI50: 0.299 µM (active)
SNB-19
  GI50: 0.543 µM (active)
Malme-3M
  GI50: 0.313 µM (active)
EKVX
  GI50: 0.288 µM (active)
SW-620
  GI50: 0.0462 µM (active)
DU-145
  GI50: 0.254 µM (active)
M14
  GI50: < 0.0271 µM (active)
UO-31
  GI50: 0.103 µM (active)
786-0
  GI50: 0.0724 µM (active)
UACC-257
  GI50: 0.0418 µM (active)
U-251
  GI50: < 0.0417 µM (active)
NCI-H226
  GI50: 1.33 µM (inactive)
HOP-62
  GI50: 0.219 µM (active)
LOX IMVI
  GI50: 0.0989 µM (active)
Hs-578T
  GI50: 9.59 µM (inactive)
CAKI-1
  GI50: 0.369 µM (active)
MDA-N
  GI50: 0.406 µM (active)
SK-MEL-2
  GI50: 0.546 µM (active)
A498
  GI50: 0.449 µM (active)
SF-539
  GI50: 0.205 µM (active)
MDA-MB-231
  GI50: < 0.01 µM (active)
A549
  GI50: 0.111 µM (active)
HOP-92
  GI50: 0.519 µM (active)
T47D
  GI50: < 0.01 µM (active)
RPMI-8226
  GI50: < 0.01 µM (active)
CCRF-CEM
  GI50: < 0.01 µM (active)
IGROV-1
  GI50: < 0.0399 µM (active)
MCF7
  GI50: < 0.01 µM (active)
SF-295
  GI50: 0.331 µM (active)
NCI-H522
  GI50: < 0.01 µM (active)
OVCAR-8
  GI50: 0.0142 µM (active)
HCT-15
  GI50: 0.049 µM
HCT-116
  GI50: < 0.01 µM (active)
UACC-62
  GI50: 0.163 µM (active)
SNB-75
  GI50: 0.135 µM (active)
NCI/ADR-RES
  GI50: < 0.01 µM (active)
RXF 393
  GI50: 0.515 µM (active)
SK-MEL-28
  GI50: 0.608 µM (active)
MDA-MB-435
  GI50: 1.3 µM (inactive)
OVCAR-3
  GI50: < 0.01 µM (active)
MOLT-4
  GI50: < 0.01 µM (active)
ACHN
  GI50: 0.142 µM (active)
HL-60
  GI50: < 0.01 µM (active)
SN12C
  GI50: 0.101 µM (active)
BT-549
  GI50: 0.512 µM (active)
PC-3
  GI50: < 0.0166 µM (active)
HT-29
  GI50: < 0.01 µM (active)
HCC 2998
  GI50: 0.468 µM (active)
K562
  GI50: < 0.01 µM (active)
NCI-H460
  GI50: 0.0977 µM (active)
SK-OV-3
  GI50: 0.556 µM (active)
KM12
  GI50: 0.23 µM (active)
SK-MEL-5
  GI50: 0.0661 µM (active)
